System: 817829-284-R-J1-PDC complex spheroids, viability
Assay: Anticancer human tumor 817829-284-R-J1-PDC patient-derived colon adenocarcinoma cell line growth inhibition [GQUAD]
Settings: for IC50: curve of first compound; for viability, T/C: stronger effect = lower value
Description: DNA G-quadruplex Stabilizer Agents in Combinations in Complex Spheroids
A high-throughput screen of multi-cell type tumor spheroids was designed to identify active combinations of DNA G-quadruplex stabilizer agents and targeted small molecules. Complex spheroids include a stromal component modeled by human endothelial cells (HUVEC) and fibroblasts modeled by human mesenchymal stem cells (MSCs). The concentration ranges selected for each drug and investigational agent were based upon clinically achievable concentrations if the clinical Cmax of the agent was known.
Compounds. The drugs and investigational agents: pidnarulex (CX-5461; NSC782164), APTO-253 (NSC789042), BRACO-19 (NSC847499), peposertib (NSC802822), ceralasertib (NSC780249), elimusertib (NSC800525), camonsertib (NSC841442), AZD-1390 (NSC803789), olaparib (NSC753686), talazoparib (NSC767125), ART-558 (NSC835418), sotorasib (NSC818433), MRTX-1133 (NSC836407), SN-38 (NSC673596), topotecan (NSC609699), etoposide (NSC141540), doxorubicin (NSC123127), gemcitabine (NSC613327), 5-fluorouracil (NSC19893), paclitaxel (NSC125973), vemurafenib (NSC761431), panobinostat (NSC761190), R-306465 (JNJ-16241199; NSC773264), adavosertib (NSC754352), TP-3654 (NSC805149), carboplatin (NSC241240), KSQ-4279 (NSC840948), and staurosporine (NSC755774) were obtained from the National Cancer Institute (NCI) Developmental Therapeutics Program Chemical Repository (34). The FDA-approved anticancer drug set is available from the NCI Developmental Therapeutics Program. […] The stock solutions were prepared in dimethyl sulfoxide (DMSO, Sigma-Aldrich, St. Louis, MO, cat. D2650) at 800-fold the tested concentration and stored at -70 degrees C prior to their use. All drugs and investigational agents were tested over a range starting from a high concentration at or near the clinical Cmax and decreasing in half-log increments. If the clinical Cmax for an agent had not been determined, the highest concentration tested was 10 microM.
2.3 Cell Culture. All cells were maintained in an incubator at 37 degrees C and 5% CO2 with 95% humidity. The PDC lines were cultured according to standard operating procedures established by the NCI PDMR. All PDCs were thawed and cultured in Matrigel-coated flasks prepared with a working solution of 1X Ham's F-12 nutrient mix, without supplementation (Invitrogen, cat. 11765054), 100 U/mL penicillin-streptomycin (Invitrogen, cat. 15140122), and 2.5% Matrigel (Corning Inc., cat. 354248) for the first three passages. The 857933-349-R-J2-PDC line was cultured in 6C/Colon 1B media, which includes advanced DMEM/F-12 (Thermo Fisher Scientific, cat. 12634028), 10 mM HEPES (Thermo Fisher Scientific, cat. 15630080), 1X GlutaMAX supplement (Thermo Fisher Scientific, cat. 35050061), 0.1 mg/mL primocin (InvivoGen, cat. ant-pm-2), 10% defined fetal bovine serum, heat inactivated (HyClone Laboratories Inc., cat. SH30070.03HI), 50% L-WRN conditioned media (ATCC, cat. CRL-3276), 1.25 mM N-Acetyl-L-cysteine (Sigma-Aldrich, cat. A9165), 10 mM nicotinamide (Sigma-Aldrich, cat. N0636), 1X B-27 supplement (Thermo Fisher Scientific, cat. 17504044), 1X N-2 supplement (Thermo Fisher Scientific, cat. 17502048), 10 microM Y-27632 dihydrochloride (Tocris Bioscience, cat. 1254), and 50 ng/mL human EGF recombinant protein (Thermo Fisher Scientific, cat. PHG0311). The 485176-168-R4-J1-PDC line was cultured in Panc media, which includes all 6C/Colon 1B media components plus 100 ng/mL human FGF-10 (Thermo Fisher Scientific, cat. 100-26), 500 nM SB-431542 (Selleckchem, cat. S1067), and gastrin (Tocris, cat. 3006).
[…]

[1] = second compound 0.0316 µM, first compound 0.0316 µM
[2] = second compound 0.0316 µM, first compound 0.1 µM
[3] = second compound 0.0316 µM, first compound 0.316 µM
[4] = second compound 0.0316 µM, first compound 1 µM
[5] = second compound 0.0316 µM, first compound 3.16 µM
[6] = second compound 0.0316 µM, first compound 10 µM
[7] = second compound 0.1 µM, first compound 0.0316 µM
[8] = second compound 0.1 µM, first compound 0.1 µM
[9] = second compound 0.1 µM, first compound 0.316 µM
[10] = second compound 0.1 µM, first compound 1 µM
[11] = second compound 0.1 µM, first compound 3.16 µM
[12] = second compound 0.1 µM, first compound 10 µM
[13] = second compound 0.316 µM, first compound 0.0316 µM
[14] = second compound 0.316 µM, first compound 0.1 µM
[15] = second compound 0.316 µM, first compound 0.316 µM
[16] = second compound 0.316 µM, first compound 1 µM
[17] = second compound 0.316 µM, first compound 3.16 µM
[18] = second compound 0.316 µM, first compound 10 µM
[19] = second compound 1 µM, first compound 0.0316 µM
[20] = second compound 1 µM, first compound 0.1 µM
[21] = second compound 1 µM, first compound 0.316 µM
[22] = second compound 1 µM, first compound 1 µM
[23] = second compound 1 µM, first compound 3.16 µM
[24] = second compound 1 µM, first compound 10 µM
[25] = second compound 3.16 µM, first compound 0.0316 µM
[26] = second compound 3.16 µM, first compound 0.1 µM
[27] = second compound 3.16 µM, first compound 0.316 µM
[28] = second compound 3.16 µM, first compound 1 µM
[29] = second compound 3.16 µM, first compound 3.16 µM
[30] = second compound 3.16 µM, first compound 10 µM
[31] = second compound 10 µM, first compound 0.0316 µM
[32] = second compound 10 µM, first compound 0.1 µM
[33] = second compound 10 µM, first compound 0.316 µM
[34] = second compound 10 µM, first compound 1 µM
[35] = second compound 10 µM, first compound 3.16 µM
[36] = second compound 10 µM, first compound 10 µM
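Note: spheroids exposed to agents for 7 days before readout.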
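Throughout, for viability, T/C: percent viability relative to DMSO vehicle control taken as 100%.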

C=CC(=O)N1CCN(c2nc(=O)n(-c3c(C)ccnc3C(C)C)c3nc(-c4c(O)cccc4F)c(F)cc23)C(C)C1 (centres undefined) + Cc1[nH]c2ccc(F)cc2c1-c1nc2c3cccnc3c3ncccc3c2[nH]1
IC50 (second compound 0.0316 µM): > 10 µM
IC50 (second compound 0.1 µM): > 10 µM
IC50 (second compound 0.316 µM): > 10 µM
IC50 (second compound 1 µM): > 10 µM
IC50 (second compound 3.16 µM): 3.26 µM
IC50 (second compound 10 µM): < 0.0316 µM
viability, T/C [1]: 106%
viability, T/C [2]: 81%
viability, T/C [3]: 109%
viability, T/C [4]: 74.4%
viability, T/C [5]: 106%
viability, T/C [6]: 97.5%
viability, T/C [7]: 87.2%
viability, T/C [8]: 90.1%
viability, T/C [9]: 88.5%
viability, T/C [10]: 91.2%
viability, T/C [11]: 108%
viability, T/C [12]: 92.8%
viability, T/C [13]: 84.3%
viability, T/C [14]: 102%
viability, T/C [15]: 104%
viability, T/C [16]: 101%
viability, T/C [17]: 102%
viability, T/C [18]: 104%
viability, T/C [19]: 82.1%
viability, T/C [20]: 97%
viability, T/C [21]: 93.6%
viability, T/C [22]: 97.6%
viability, T/C [23]: 98.2%
viability, T/C [24]: 79.8%
viability, T/C [25]: 102%
viability, T/C [26]: 99.3%
viability, T/C [27]: 75.7%
viability, T/C [28]: 68.2%
viability, T/C [29]: 51.7%
viability, T/C [30]: 32.4%
viability, T/C [31]: 11.3%
viability, T/C [32]: 18.4%
viability, T/C [33]: 44.3%
viability, T/C [34]: 15.1%
viability, T/C [35]: 11.6%
viability, T/C [36]: 17.1%

CCCS(=O)(=O)Nc1ccc(F)c(C(=O)c2c[nH]c3ncc(-c4ccc(Cl)cc4)cc23)c1F + Cc1[nH]c2ccc(F)cc2c1-c1nc2c3cccnc3c3ncccc3c2[nH]1
IC50 (second compound 0.0316 µM): 5.84 µM
IC50 (second compound 0.1 µM): 5.38 µM
IC50 (second compound 0.316 µM): 5.84 µM
IC50 (second compound 1 µM): 5.48 µM
IC50 (second compound 3.16 µM): 0.067 µM
IC50 (second compound 10 µM): 0.0549 µM
viability, T/C [1]: 107%
viability, T/C [2]: 106%
viability, T/C [3]: 102%
viability, T/C [4]: 107%
viability, T/C [5]: 85%
viability, T/C [6]: 19.3%
viability, T/C [7]: 117%
viability, T/C [8]: 107%
viability, T/C [9]: 111%
viability, T/C [10]: 95.4%
viability, T/C [11]: 74.1%
viability, T/C [12]: 22.6%
viability, T/C [13]: 102%
viability, T/C [14]: 113%
viability, T/C [15]: 106%
viability, T/C [16]: 92%
viability, T/C [17]: 84.9%
viability, T/C [18]: 21.6%
viability, T/C [19]: 117%
viability, T/C [20]: 106%
viability, T/C [21]: 119%
viability, T/C [22]: 101%
viability, T/C [23]: 80.8%
viability, T/C [24]: 16.9%
viability, T/C [25]: 60.6%
viability, T/C [26]: 40.4%
viability, T/C [27]: 38%
viability, T/C [28]: 23.6%
viability, T/C [29]: 21.1%
viability, T/C [30]: 10.1%
viability, T/C [31]: 67.5%
viability, T/C [32]: 30.9%
viability, T/C [33]: 12%
viability, T/C [34]: 5.4%
viability, T/C [35]: 4.9%
viability, T/C [36]: 5.95%
